In publication PMC10578352, “Identification of a Protein Arginine Methyltransferase 7 (PRMT7)/Protein Arginine Methyltransferase 9 (PRMT9) Inhibitor” (Journal of Medicinal Chemistry, 2023):

Columns and labels:
GST-HsPRMT7 = biological target: T1, GST-HsPRMT7 (Homo sapiens, UniProt Q9NVM4); experiment: Radioisotope-based assay (SDS-PAGE, fluorography, densitometry), HsPRMT7; assay type: biochemical; conditions: substrate HsH2B, 15 °C, read-out: % HsPRMT7 residual activity
T1 construct: made in house; host or cells: E. coli
T1 sequence (Q9NVM4 1-692): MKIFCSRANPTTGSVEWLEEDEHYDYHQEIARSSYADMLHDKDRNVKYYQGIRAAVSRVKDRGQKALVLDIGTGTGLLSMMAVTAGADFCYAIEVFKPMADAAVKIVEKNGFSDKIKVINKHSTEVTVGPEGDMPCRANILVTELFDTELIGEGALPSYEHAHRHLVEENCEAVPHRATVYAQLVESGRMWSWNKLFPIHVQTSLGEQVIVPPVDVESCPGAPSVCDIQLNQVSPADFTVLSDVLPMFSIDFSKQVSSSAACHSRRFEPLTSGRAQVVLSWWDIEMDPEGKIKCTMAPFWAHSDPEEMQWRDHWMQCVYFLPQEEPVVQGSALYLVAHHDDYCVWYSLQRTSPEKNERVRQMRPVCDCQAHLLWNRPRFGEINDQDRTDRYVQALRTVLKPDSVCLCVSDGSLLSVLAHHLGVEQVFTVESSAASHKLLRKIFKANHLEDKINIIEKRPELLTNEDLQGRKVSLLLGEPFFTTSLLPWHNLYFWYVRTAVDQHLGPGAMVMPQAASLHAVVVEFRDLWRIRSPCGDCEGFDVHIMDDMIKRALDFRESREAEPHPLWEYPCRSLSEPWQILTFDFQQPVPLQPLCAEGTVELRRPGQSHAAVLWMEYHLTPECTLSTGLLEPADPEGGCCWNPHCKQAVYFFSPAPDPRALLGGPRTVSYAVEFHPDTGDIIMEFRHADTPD
Protocol: (§1) Based on these outcomes, we resolved to explore the effect on the capability to inhibit PRMT9 enzymatic activity of further reduction of the distance between the pharmacophoric moieties. […] After the experiment was repeated with 100, 250, and 500 μM concentrations of each inhibitor, half inhibition was observed only at a concentration of roughly 250 μM (Figure 4d).
(§2) […]. The experiments were performed as reported in the Experimental procedures section. GST-HsPRMT9 (a) and GST-HsPRMT7 (b) were incubated with human GST-SF3B2 (401–550) peptide or recombinant HsH2B, respectively (1 μg of enzyme, 5 μg of substrate), 0.14 μM [^3H]SAM, and the indicated concentrations of tested compounds at the corresponding optimal reaction temperature (37 °C for HsPRMT9, 15 °C for HsPRMT7). C. elegans GST-tagged enzymes PRMT9 (c) and PRMT7 (d) were incubated with GST-CeSFTB-2 (99–248) fragment or recombinant HsH2B, respectively (1 μg of enzyme, 5 μg of substrate), 0.14 μM [^3H]SAM, and the indicated concentrations of tested compounds at the corresponding optimal reaction temperature (25 °C for CePRMT9, 15 °C for CePRMT7). After SDS-PAGE, the gels were treated as previously described[48] and densitometry analysis was done using ImageJ software, and data was plotted as normalized activity to the no inhibitor controls.
(§3) Human PRMT9, C. elegans PRMT9, human PRMT7, and C. elegans PRMT7 plasmids were sequenced, expressed in E. coli as GST-fusion proteins, and purified as previously described.[48] Substrates were also sequenced and purified as described [human GST-SF3B2 (401–550);[13]C. elegans SFTB-2;[48] human histone H2B (New England Biolabs, M2505S)]. Xenopus laevis histone H2B was expressed in E. coli and purified similarly to what was previously reported by Luger et al.[72]
(§4) Reactions consisting of approximately 1 μg of enzyme (human or C. elegans GST-tagged enzymes PRMT9 and PRMT7), reacted with approximately 5 μg of substrate [for human PRMT9, human GST-SF3B2 401–550 fragment; C. elegans PRMT9 with C. elegans GST-SFTB-2 (99–248) fragment, or recombinant human histone H2B from New England Biolabs (M2505S)], were incubated for the indicated time in reaction buffer {50 mM potassium HEPES buffer, 10 mM NaCl, 1 mM dithiothreitol (DTT), pH 8.0 with 0.7 μM S-adenosyl-L-[methyl-^3H]methionine (^3H-AdoMet, PerkinElmer Life Sciences, 82.7 Ci/mmol, 0.55 mCi/mL in 10 mM H2SO4/EtOH [9:1 (v/v)])} in a final reaction volume of 60 μL. Each reaction was incubated at the corresponding optimal reaction temperature (37 °C for human PRMT9, 25 °C for C. elegans PRMT9, and 15 °C for C. elegans and human PRMT7 enzymes. MTA was dissolved in water, and a wavelength scan was taken to determine the final concentration using the extinction coefficient. The final concentrations used are indicated in the figure legends. […]. EML734, EML736, and EML709 were also dissolved in DMSO, and further dilutions were made in DMSO for the working stocks. For controls, no inhibitor reactions were created by the addition of the respective solvent (water for MTA and DMSO for EPZ015666 and EML inhibitors).
After the reaction incubations with the various concentrations of inhibitors, the reactions were quenched by adding 0.2 volume of 5× SDS sample loading buffer, and subsequently, the reactions were run on a 12.6% polyacrylamide Tris gel. To collect the radioactive signal, the gels were then treated in the same way as previously described.[48] […]

CePRMT9 = experiment: Radioisotope-based assay (SDS-PAGE, fluorography, densitometry), CePRMT9; assay type: biochemical, Caenorhabditis elegans; conditions: substrate GST-CeSFTB-2 (99–248), 25 °C
Protocol: as §1, §2, §3, §4
(§5) After the reaction incubations with the various concentrations of inhibitors, the reactions were quenched by adding 0.2 volume of 5× SDS sample loading buffer, and subsequently, the reactions were run on a 12.6% polyacrylamide Tris gel. To collect the radioactive signal, the gels were then treated in the same way as previously described.[48]
(§6) After various exposures were collected to ensure linear detection, densitometry analysis was done using ImageJ software, and data were plotted as normalized activity to the no inhibitor controls.

GST-HsPRMT9 = biological target: T2, GST-HsPRMT9 (Homo sapiens, UniProt Q6P2P2); experiment: Radioisotope-based assay (SDS-PAGE, fluorography, densitometry), HsPRMT9; assay type: biochemical
T2 construct: made in house; host or cells: E. coli
T2 sequence (Q6P2P2 1-845): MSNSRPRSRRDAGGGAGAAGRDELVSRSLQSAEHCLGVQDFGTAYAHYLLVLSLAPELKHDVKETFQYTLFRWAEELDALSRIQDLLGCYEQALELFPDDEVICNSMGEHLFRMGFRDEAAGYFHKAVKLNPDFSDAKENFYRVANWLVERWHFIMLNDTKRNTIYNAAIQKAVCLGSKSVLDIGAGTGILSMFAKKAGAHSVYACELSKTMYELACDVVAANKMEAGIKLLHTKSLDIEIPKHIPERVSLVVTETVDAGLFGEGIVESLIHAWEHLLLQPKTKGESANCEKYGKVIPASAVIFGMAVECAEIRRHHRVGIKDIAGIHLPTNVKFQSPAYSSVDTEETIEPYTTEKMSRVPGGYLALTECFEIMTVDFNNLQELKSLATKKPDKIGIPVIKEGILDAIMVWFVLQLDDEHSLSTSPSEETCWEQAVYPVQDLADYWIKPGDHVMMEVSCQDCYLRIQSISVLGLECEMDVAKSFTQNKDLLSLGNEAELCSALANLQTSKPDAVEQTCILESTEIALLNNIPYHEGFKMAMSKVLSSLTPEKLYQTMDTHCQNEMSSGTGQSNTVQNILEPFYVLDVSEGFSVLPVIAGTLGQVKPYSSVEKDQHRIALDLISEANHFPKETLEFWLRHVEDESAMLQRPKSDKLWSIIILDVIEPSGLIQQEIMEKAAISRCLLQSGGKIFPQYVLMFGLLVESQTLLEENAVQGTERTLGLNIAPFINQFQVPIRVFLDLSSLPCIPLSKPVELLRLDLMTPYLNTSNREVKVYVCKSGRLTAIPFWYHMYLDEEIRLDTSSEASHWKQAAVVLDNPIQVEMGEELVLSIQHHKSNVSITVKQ
Protocol: as §1, §2, §3, §4, §5, §6

CePRMT7 = biological target: T3, CePRMT7 (Caenorhabditis elegans, UniProt Q9XW42); experiment: Radioisotope-based assay (SDS-PAGE, fluorography, densitometry), CePRMT7; assay type: biochemical; conditions: 100 uM; substrate HsH2B, 15 °C; read-out: % CePRMT7 residual activity
T3 construct: made in house; host or cells: E. coli
Protocol: as §1, §2, §3, §4, §5, §6

ASH1L/KMT2H = biological target: T4, ASH1L/KMT2H (Homo sapiens, UniProt Q9NR48); experiment: HotSpot KMT activity assay, ASH1L; assay type: biochemical
T4 construct: the human recombinant ASH1L (residues 2046–2330, with an N-terminal His-tag); His (N); purchased Reaction Biology Corporation
Description: ; MW = 35.4 kDa; Genbank Accession # NM_018489), or the human recombinant EZH2-containing five-member polycomb repressive complex 2 (including EZH2 residues 2–746, AEBP2 2–517, EED 2–441, RbAp48 2–425, SUZ12 2–739; all full-length; with N-terminal Flag-tag on EED and N-terminal His-tag on all others; MW = 333.8 kDa; Genbank Accession # NM_001203247, NM_001114176, NM_003797, NM_005610, NM_015355), or the human recombinant G9a (residues 913–1193, C-terminus; with an N-terminal His-tag; MW = 34.6 kDa; Genbank Accession # NM_006709.3), or the human recombinant MLL1 complex (including MLL1 residues 3745–3969, C-terminus, WDR5 22–334, C-terminus, RbBP5 1–538, C-terminus, ASH2L 2–534, C-terminus, DPY-30 1–99, C-terminus; N-terminal His-tag on all subunits; MW = 212.0 kDa; Genbank Accession # NM_005933, NM_017588, NM_005057, NM_001105214, NM_0325742), or the human recombinant SET7/9 (residues 2–366, C-terminus; with a N-terminal GST-tag and a C-terminal His-tag; MW = 68.5 kDa; Genbank Accession # NM_030648), or the human recombinant SMYD3 (residues 2–428, C-terminus; C-terminal His-tag; MW = 50.1 kDa; Genbank Accession # NM_001167740), or the human recombinant SUV39H2 (residues 46–410, C-terminus; N-terminal fusion protein with a C-terminal His-tag; MW = 98.8 kDa; GenBank Accession No. NM_001193424), or the human recombinant DOT1L (residues 1–416; N-terminal GST-tag; MW = 80.0 kDa; Genbank Accession # NM_032482) was added to a solution of the proper substrate (oligo nucleosomes for ASH1L, MLL1 complex, and DOT1L, final concentration 0.05 mg/mL; core histone for EZH2 complex and SET7/9, final concentration 0.05 mg/mL; histone H3 for SUV39H2, final concentration 5 μM; histone H3 1–21 for G9a, final concentration 2.5 μM) in freshly prepared reaction buffer (50 mM Tris-HCl (pH 8.5), 5 mM MgCl2, 50 mM NaCl, 1 mM DTT, 1 mM PMSF, 1% DMSO) and gently mixed. […] After incubation for 60 min at 30 °C, the reaction mixture was delivered to filter paper for detection (as assessed by scintillation). […] Values obtained for each compound are mean ± SD determined for two separate experiments.

[1] = substrate GST-SF3B2 (401–550), 37 °C, read-out: % HsPRMT9 residual activity

T3 sequence (Q9XW42 whole entry): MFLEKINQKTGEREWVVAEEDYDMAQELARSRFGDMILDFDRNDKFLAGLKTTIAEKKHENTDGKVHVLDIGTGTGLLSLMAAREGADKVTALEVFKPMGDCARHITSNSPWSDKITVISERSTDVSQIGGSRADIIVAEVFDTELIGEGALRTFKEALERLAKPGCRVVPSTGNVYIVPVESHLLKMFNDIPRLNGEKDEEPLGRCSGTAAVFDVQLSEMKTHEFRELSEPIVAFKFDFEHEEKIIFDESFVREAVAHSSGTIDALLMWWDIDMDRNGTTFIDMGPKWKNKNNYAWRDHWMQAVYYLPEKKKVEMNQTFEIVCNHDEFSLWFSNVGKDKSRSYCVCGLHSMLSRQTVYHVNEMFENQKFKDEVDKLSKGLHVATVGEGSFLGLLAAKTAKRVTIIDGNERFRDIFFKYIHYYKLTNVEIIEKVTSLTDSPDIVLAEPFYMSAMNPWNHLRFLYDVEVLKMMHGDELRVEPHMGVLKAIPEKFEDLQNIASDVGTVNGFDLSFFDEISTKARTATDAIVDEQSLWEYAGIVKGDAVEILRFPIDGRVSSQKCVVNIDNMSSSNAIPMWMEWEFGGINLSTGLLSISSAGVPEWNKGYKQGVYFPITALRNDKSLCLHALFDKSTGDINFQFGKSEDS

remaining activity at 100 µM (GST-HsPRMT7) [%]	inhibition of HsPRMT9 (in words) (GST-HsPRMT9; 100 μM)	remaining activity at 100 µM (GST-HsPRMT9; [1]) [%]	remaining activity at 100 µM (CePRMT7) [%]	remaining activity at 250 µM (GST-HsPRMT9; 250 uM, substrate GST-SF3B2 (401–550), 37 °C, read-out: % HsPRMT9 residual activity) [%]	remaining activity at 500 µM (GST-HsPRMT9; 500 uM, substrate GST-SF3B2 (401–550), 37 °C, read-out: % HsPRMT9 residual activity) [%]	inhibition of HsPRMT9 (in words) (GST-HsPRMT9; up to 500 μM)	Compound	% CePRMT9 residual activity (CePRMT9; 100 uM) [%]	IC50 (ASH1L/KMT2H) [nM]	% CePRMT9 residual activity (CePRMT9; 250 uM) [%]	% CePRMT9 residual activity (CePRMT9; 500 uM) [%]
46.8	good inhibition only at 100 μM	26	130				CSC[C@H]1O[C@@H](n2cnc3c(N)ncnc32)[C@H](O)[C@@H]1O [MTA, 5′-Deoxy-5′-(methylthio)adenosine, reference compound]	23.57			
							CN1C(=O)[C@@]23C[C@]4([C@]56C[C@@]78SS[C@@](CO)(C(=O)N7[C@H]5Nc5ccccc56)N(C)C8=O)c5ccccc5N[C@@H]4N2C(=O)[C@]1(CO)SS3 [chaetocin, reference compound]		25		
120		99.8	131	105	98	inactive	O=C(NC[C@H](O)CN1CCc2ccccc2C1)c1cc(NC2COC2)ncn1 [EPZ015666, reference compound]	139.23		132.20	105.26
